The text below walks through data of patent US20090156646A1, “PYRIDYLPHENOL COMPOUND AND USE THEREOF” (TAKEDA PHARMACEUTICAL COMPANY LIMITED, priority 2005, published 2009).

Each structure is given as a SMILES string. Counter-ions that a name gives are not always drawn.

Usually melting point stands for the temperature, or range, at which the solid turns liquid. In turn, `CNCC(=O)Nc1cccc(-c2cc(-c3ccccc3O)nc(NC(=O)c3cccs3)c2C#N)c1.Cl` came in with a melting point of 248 to 254 °C.

`Cl.N#Cc1c(-c2cccc(NC(=O)[C@@H]3CCCN3)c2)cc(-c2ccccc2O)nc1NC(=O)c1cccs1` came in with a melting point of 210 to 218 °C.

For the compound `Cl.N#Cc1c(-c2cccc(NC(=O)[C@H]3CCCN3)c2)cc(-c2ccccc2O)nc1NC(=O)c1cccs1`, the melting point was 213 to 218 °C. With `COc1ccccc1C(=O)Nc1nc(-c2ccc(Cl)cc2O)cc(-c2cccc(NC(=O)CCN)c2)c1C#N.Cl` the figure was 233 to 238 °C; with `Cl.NCCC(=O)Nc1cccc(-c2cc(-c3ccccc3O)nc(NC(=O)c3ccccc3)c2C(=O)O)c1`, 250 to 253 °C; with `Cl.N#Cc1c(-c2cccc(NC(=O)CN3CCCCC3)c2)cc(-c2ccc(F)cc2O)nc1NC(=O)c1ccco1`, 249 to 251 °C.

`Cl.N#Cc1c(-c2ccc(F)c(N)c2)cc(-c2ccc(F)cc2O)nc1NC(=O)c1ccco1`: the melting point lay within 284 to 285 °C. Then `Cl.N#Cc1c(-c2cccc(N3CCOCC3)c2)cc(-c2ccc(F)cc2O)nc1NC(=O)c1ccco1`, with 244 to 246 °C. With `Cl.N#Cc1c(-c2cccc(N3CCCCC3)c2)cc(-c2ccc(F)cc2O)nc1NC(=O)c1ccco1` the figure was 240 to 242 °C; with `Cl.N#Cc1c(-c2cccc(C(=O)NCCCN)c2)cc(-c2ccccc2O)nc1NC(=O)c1cccs1`, 192 to 198 °C. Then `Cl.N#Cc1c(-c2ccc(C(=O)NCCN)cc2)cc(-c2ccccc2O)nc1NC(=O)c1cccs1`, with 202 to 208 °C; and `Cl.N#Cc1c(-c2cccc(C(=O)N3CCNCC3)c2)cc(-c2ccccc2O)nc1NC(=O)c1cccs1`, with 232 to 236 °C.

In the case of `COc1ccc(O)c(-c2cc(-c3cccc(NC(=O)CCN)c3)c(C#N)c(NC(=O)c3cccs3)n2)c1.Cl`, the melting point was 197 to 201 °C.

With `COc1ccccc1C(=O)Nc1nc(-c2ccc(Cl)cc2O)cc(-c2cccc(C(=O)NCCN)c2)c1C#N.Cl`, the melting point was 227 to 229 °C. In turn, `CCOc1ccccc1C(=O)Nc1nc(-c2ccc(Cl)cc2O)cc(-c2cccc(NC(=O)CCN)c2)c1C#N.Cl` came in with a melting point of 240 to 244 °C. With `Cl.N#Cc1c(-c2cccc(NC(=O)CCN)c2)cc(-c2ccc(Cl)cc2O)nc1NC(=O)c1ccccc1OC(F)(F)F` the figure was 218 to 223 °C. With `Cl.N#Cc1c(-c2cccc(C(=O)NC3CCCNC3)c2)cc(-c2ccccc2O)nc1NC(=O)c1cccs1` (stereo not shown) the figure was 232 to 233 °C; with `Cl.N#Cc1c(-c2cccc(C(=O)NC3CCCNC3)c2)cc(-c2ccccc2O)nc1NC(=O)c1cc2ccccc2s1` (stereo not shown), 225 to 229 °C; with `N#Cc1c(-c2cccc(C(=O)NC3CCCNC3)c2)cc(-c2ccccc2O)nc1NC(=O)c1ccccn1` (stereo not shown) (as salt: hydrochloride) [Example 10, N-(3-cyano-6-(2-hydroxyphenyl)-4-{3-[(piperidin-3-ylamino)carbonyl]phenyl}pyridin-2-yl)pyridin-2-carboxamide dihydrochloride], 204 to 210 °C. With `N#Cc1c(-c2cccc(NC(=O)CN)c2)cc(-c2ccccc2O)nc1NC(=O)c1cccs1` (as salt: hydrochloride) [Example 12, N-[3-cyano-4-[3-(glycylamino)phenyl]-6-(2-hydroxyphenyl)pyridin-2-yl]thiophene-2-carboxamide dihydrochloride] the figure was 210 to 217 °C.

`N#Cc1c(-c2ccccc2C(=O)NCCN)cc(-c2ccccc2O)nc1NC(=O)c1cccs1` (as salt: hydrochloride) [Example 24, N-[4-(2-{[(2-aminoethyl)amino]carbonyl}phenyl)-3-cyano-6-(2-hydroxyphenyl)pyridin-2-yl]thiophene-2-carboxamide dihydrochloride]: the melting point is 196 to 201 °C. In turn, `NCCC(=O)Nc1cccc(-c2cc(NC(=O)c3cccs3)nc(-c3ccccc3O)c2)c1` (as salt: hydrochloride) [Example 27, N-{4-[3-(β-alanylamino)phenyl]-6-(2-hydroxyphenyl)pyridin-2-yl}thiophene-2-carboxamide dihydrochloride] displayed a melting point of 214 to 220 °C. Then `CN(C(=O)CN)c1cccc(-c2cc(-c3ccccc3O)nc(NC(=O)c3cccs3)c2C#N)c1` (as salt: hydrochloride) [Example 41, N-[3-cyano-4-{3-[glycyl(methyl)amino]phenyl}-6-(2-hydroxyphenyl)pyridin-2-yl]thiophene-2-carboxamide dihydrochloride], with 198 to 205 °C; and `N#Cc1c(-c2cccc(NC(=O)[C@@H](N)Cc3cnc[nH]3)c2)cc(-c2ccc(Cl)cc2O)nc1NC(=O)c1ccco1` (as salt: hydrochloride) [Example 243, N-{3-[6-(4-chloro-2-hydroxyphenyl)-3-cyano-2-(2-furoylamino)pyridin-4-yl]phenyl}-L-histidinamide dihydrochloride], with 206 to 214 °C; and `CN(C)c1ccc(-c2cc(-c3ccccc3O)nc(NC(=O)c3cccs3)c2C#N)cc1C(=O)NCCN` (as salt: hydrochloride) [Example 248, N-[4-[3-{[(2-aminoethyl)amino]carbonyl}-4-(dimethylamino)phenyl]-3-cyano-6-(2-hydroxyphenyl)pyridin-2-yl]thiophene-2-carboxamide dihydrochloride], with 210 to 216 °C. With `N#Cc1c(-c2cccc(NC(=O)[C@H](N)Cc3cnc[nH]3)c2)cc(-c2ccc(Cl)cc2O)nc1NC(=O)c1ccco1` (as salt: hydrochloride) [Example 253, N-{3-[6-(4-chloro-2-hydroxyphenyl)-3-cyano-2-(2-furoylamino)pyridin-4-yl]phenyl}-D-histidinamide dihydrochloride] the figure was 200 to 206 °C.

`CN(C)CC(=O)Nc1cccc(-c2cc(-c3ccc(F)cc3O)nc(NC(=O)c3ccco3)c2CN(C)C)c1` (as salt: hydrochloride) [Example 300, N-[3-[(dimethylamino)methyl]-4-{3-[(N,N-dimethylglycyl)amino]phenyl}-6-(4-fluoro-2-hydroxyphenyl)pyridin-2-yl]-2-furamide dihydrochloride] had a melting point of 186 to 194 °C.

Consider `N#Cc1c(-c2cccc(NC(=O)[C@@H](N)CN)c2)cc(-c2ccc(F)cc2O)nc1NC(=O)c1ccco1` (as salt: hydrochloride) [Example 302, N-[4-{3-[(3-amino-L-alanyl)amino]phenyl}-3-cyano-6-(4-fluoro-2-hydroxyphenyl)pyridin-2-yl]-2-furamide dihydrochloride], for which the melting point lay in the range of 231 to 240 °C. Then `CCN(CC)CCN(CC)c1cccc(-c2cc(-c3ccc(F)cc3O)nc(NC(=O)c3ccco3)c2C#N)c1` (as salt: hydrochloride) [Example 304, N-[3-cyano-4-{3-[[2-(diethylamino)ethyl] (ethyl)amino]phenyl}-6-(4-fluoro-2-hydroxyphenyl)pyridin-2-yl]-2-furamide dihydrochloride], with 138 to 144 °C; and `CN(C)C[C@@H](C(=O)Nc1cccc(-c2cc(-c3ccc(F)cc3O)nc(NC(=O)c3ccco3)c2C#N)c1)N(C)C` (as salt: hydrochloride) [Example 305, N-[3-cyano-4-(3-{[3-(dimethylamino)-N,N-dimethyl-L-alanyl]amino}phenyl)-6-(4-fluoro-2-hydroxyphenyl)pyridin-2-yl]-2-furamide dihydrochloride], with 195 to 200 °C; and `CCCC(CC(=O)Nc1cccc(-c2cc(-c3ccc(F)cc3O)nc(NC(=O)c3ccco3)c2C#N)c1)N(CC)CC` (stereo not shown) (as salt: hydrochloride) [Example 317, N-[3-cyano-4-(3-{[3-(diethylamino)hexanoyl]amino}phenyl)-6-(4-fluoro-2-hydroxyphenyl)pyridin-2-yl]-2-furamide hydrochloride], with 195 to 197 °C. With `CN1CCN(Cc2cccc(-c3cc(-c4ccc(F)cc4O)nc(NC(=O)c4ccco4)c3C#N)c2)CC1` (as salt: hydrochloride) [Example 333, N-(3-cyano-6-(4-fluoro-2-hydroxyphenyl)-4-{3-[(4-methylpiperazin-1-yl)methyl]phenyl}pyridin-2-yl)-2-furamide dihydrochloride] the figure was 205 to 210 °C; with `CCN1CCN(Cc2cccc(-c3cc(-c4ccc(F)cc4O)nc(NC(=O)c4ccco4)c3C#N)c2)CC1` (as salt: hydrochloride) [Example 334, N-[3-cyano-4-{3-[(4-ethylpiperazin-1-yl)methyl]phenyl}-6-(4-fluoro-2-hydroxyphenyl)pyridin-2-yl]-2-furamide dihydrochloride], 215 to 222 °C; with `N#Cc1c(-c2cccc(NC(=O)CCN)c2)cc(-c2ccccc2O)nc1NC(=O)c1ccccc1` (as salt: trifluoroacetate) [Example 31, N-[4-(3-(β-alanylamino)phenyl)-3-cyano-6-(2-hydroxyphenyl)pyridin-2-yl]benzamide trifluoroacetate], 225 to 226 °C. Then `N#Cc1c(-c2cccc(NC(=O)CCN)c2)cc(-c2cc(Cl)ccc2O)nc1NC(=O)c1cccs1` (as salt: trifluoroacetate) [Example 46, N-{4-[3-(β-alanylamino)phenyl]-6-(5-chloro-2-hydroxyphenyl)-3-cyanopyridin-2-yl}thiophene-2-carboxamide trifluoroacetate], with 197 to 204 °C; and `N#Cc1c(-c2cccc(NC(=O)CCN)c2)cc(-c2cc(Cl)ccc2O)nc1NC(=O)c1ccccc1` (as salt: trifluoroacetate) [Example 47, N-{4-[3-(β-alanylamino)phenyl]-6-(5-chloro-2-hydroxyphenyl)-3-cyanopyridin-2-yl}benzamide trifluoroacetate], with 205 to 210 °C. `COc1ccc(-c2cc(-c3cccc(NC(=O)CCN)c3)c(C#N)c(NC(=O)c3ccccc3)n2)c(O)c1` (as salt: trifluoroacetate) [Example 50, N-{4-[3-(β-alanylamino)phenyl]-3-cyano-6-(2-hydroxy-4-methoxyphenyl)pyridin-2-yl}benzamide trifluoroacetate] had a melting point of 164 to 170 °C.
